Measured values reported in patent US6342225B1, “Pharmaceutical active conjugates” (Deutshces Wollforschungsinstitut, priority 1993, dated 2002).

How the values were obtained:
[1] = test system: glucose production (Ra) and glucose disposal (Rd); experiment: glucose turnover during infusion with D-3H-3-glucose in anaesthetized beagles, euglycaemia maintained; type: in vivo; settings: mean±SEM
Description: Euglycaemia and glucose specific activity were maintained by variable infusion of D-glucose with D-^3H-3-glucose.
In each experiment insulin-like activity for Ra and Rd was calculated as the area between the basal values of each of these variables and subsequent values plotted graphically against time (AUC).

[2] = molecular target: T1, thyroxine binding globulin (TBG) (Homo sapiens, UniProt P05543); experiment: optical biosensor IAsys kinetic binding to immobilized TBG; settings: control, 500 μg/ml
T1 sequence (P05543 21-415): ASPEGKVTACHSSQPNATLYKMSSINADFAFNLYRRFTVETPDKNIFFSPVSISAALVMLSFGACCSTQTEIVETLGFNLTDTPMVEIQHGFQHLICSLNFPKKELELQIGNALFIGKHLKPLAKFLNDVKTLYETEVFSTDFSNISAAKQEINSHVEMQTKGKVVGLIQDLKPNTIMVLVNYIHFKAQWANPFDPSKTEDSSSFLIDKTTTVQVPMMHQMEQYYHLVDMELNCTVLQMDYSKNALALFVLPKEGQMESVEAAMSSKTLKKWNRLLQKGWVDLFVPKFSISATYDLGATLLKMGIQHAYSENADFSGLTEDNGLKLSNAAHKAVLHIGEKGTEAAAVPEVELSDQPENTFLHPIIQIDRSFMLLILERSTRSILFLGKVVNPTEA
Description: The optical bio-sensor IAsys makes it possible to record biomolecular interactions in real time and thus kinetical studies.
The surface of the cuvette is covered with a carboxymethylated dextran matrix (CMD), to which the plasma protein TBG is immobilized.
Immobilization of TBG to the carboxymethylated matrix is detected via the change of the resonance angle.
For the kinetical studies the Thyroid-Insulin conjugate was injected into the microcuvette in dilution series of 200, 300, 400 and 500 μg/ml in HBS/Tween-buffer at 25° C. To test for reproducibility, all measurements were repeated 3 times.
As a control, native insulin was injected at high concentration (500 μg/ml). […] For further measurements the surface of the microcuvette was rinsed several times with buffer.
Determination of “on-rate” constants kon at various ligand concentrations CL allow kon to be plotted against CL according to equation (4). This gives the association rate constant kA from the slope and the dissociation rate constant kD at C2=O. It has, however, to be taken into account that the error of kD becomes too large when kD<0,01 s^−1 (IAsys, METHODS GUIDE).

[3] = test system: hepatic glucose output and peripheral uptake; settings: British Diabetic Association conference 1989; cited from earlier work

insulin
AUC for Ra (glucose production), area between basal and subsequent values against time [1]: -431 ± 121 mg/kg | AUC for Rd (glucose disposal), area between basal and subsequent values against time [1]: 1142 ± 160 mg/kg

native insulin: native insulin injected at 500 μg/ml as control in the biosensor study
association to immobilized TBG [2]: association cannot be observed

proinsulin: the zymogen which is cleaved to form the active hormone insulin
hepatoselectivity (effect on hepatic glucose output versus peripheral uptake and utilisation) [3]: shows this hepatoslectivity to a smaller degree
